Data: ChEMBL document CHEMBL1649285, “In vivo efficacy of 1- and 2-gram human simulated prolonged infusions of doripenem against Pseudomonas aeruginosa” (Antimicrob Agents Chemother, 2009)
≈ marks a conversion by molar mass, not a printed value.

Columns and labels:
Assay type in all cases: functional
[1] = tested on: Pseudomonas aeruginosa; assay: Antimicrobial activity against Pseudomonas aeruginosa isolate 1036 by broth microdilution method in presence of beta-lactamase inhibitor Tazobactam
[2] = tested on: Pseudomonas aeruginosa; assay: Antimicrobial activity against Pseudomonas aeruginosa isolate 944 by broth microdilution method in presence of beta-lactamase inhibitor Tazobactam
[3] = tested on: Pseudomonas aeruginosa; assay: Antimicrobial activity against Pseudomonas aeruginosa isolate 1050 by broth microdilution method in presence of beta-lactamase inhibitor Tazobactam
[4] = tested on: Pseudomonas aeruginosa; assay: Antimicrobial activity against Pseudomonas aeruginosa isolate 1060 by broth microdilution method in presence of beta-lactamase inhibitor Tazobactam
[5] = tested on: Pseudomonas aeruginosa; assay: Antimicrobial activity against Pseudomonas aeruginosa isolate 1095 by broth microdilution method in presence of beta-lactamase inhibitor Tazobactam
[6] = tested on: Pseudomonas aeruginosa; assay: Antimicrobial activity against Pseudomonas aeruginosa isolate 22 by broth microdilution method in presence of beta-lactamase inhibitor Tazobactam
[7] = tested on: Pseudomonas aeruginosa; assay: Antimicrobial activity against Pseudomonas aeruginosa isolate 878 by broth microdilution method in presence of beta-lactamase inhibitor Tazobactam
[8] = tested on: Pseudomonas aeruginosa; assay: Antimicrobial activity against Pseudomonas aeruginosa isolate 896 by broth microdilution method in presence of beta-lactamase inhibitor Tazobactam
[9] = tested on: Pseudomonas aeruginosa; assay: Antimicrobial activity against Pseudomonas aeruginosa isolate 988 by broth microdilution method in presence of beta-lactamase inhibitor Tazobactam
[10] = tested on: Pseudomonas aeruginosa; assay: Antimicrobial activity against Pseudomonas aeruginosa isolate 1006 by broth microdilution method in presence of beta-lactamase inhibitor Tazobactam
[11] = tested on: Pseudomonas aeruginosa; assay: Antimicrobial activity against Pseudomonas aeruginosa isolate 856 by broth microdilution method in presence of beta-lactamase inhibitor Tazobactam
[12] = tested on: Pseudomonas aeruginosa; assay: Antimicrobial activity against Pseudomonas aeruginosa isolate 913 by broth microdilution method in presence of beta-lactamase inhibitor Tazobactam
[13] = tested on: Pseudomonas aeruginosa; assay: Antimicrobial activity against Pseudomonas aeruginosa isolate 927 by broth microdilution method in presence of beta-lactamase inhibitor Tazobactam
[14] = tested on: Pseudomonas aeruginosa; assay: Antimicrobial activity against Pseudomonas aeruginosa isolate 968 by broth microdilution method in presence of beta-lactamase inhibitor Tazobactam
[15] = tested on: Pseudomonas aeruginosa; assay: Antimicrobial activity against Pseudomonas aeruginosa isolate 971 by broth microdilution method in presence of beta-lactamase inhibitor Tazobactam
[16] = tested on: Pseudomonas aeruginosa; assay: Antimicrobial activity against Pseudomonas aeruginosa isolate 821 by broth microdilution method in presence of beta-lactamase inhibitor Tazobactam
[17] = tested on: Pseudomonas aeruginosa; assay: Antimicrobial activity against Pseudomonas aeruginosa isolate 1080 by broth microdilution method in presence of beta-lactamase inhibitor Tazobactam
[18] = tested on: Pseudomonas aeruginosa; assay: Antimicrobial activity against Pseudomonas aeruginosa isolate 1093 by broth microdilution method in presence of beta-lactamase inhibitor Tazobactam
[19] = tested on: Pseudomonas aeruginosa; assay: Antimicrobial activity against Pseudomonas aeruginosa isolate 1036 by broth microdilution method
[20] = tested on: Pseudomonas aeruginosa; assay: Antimicrobial activity against Pseudomonas aeruginosa isolate 944 by broth microdilution method
[21] = tested on: Pseudomonas aeruginosa; assay: Antimicrobial activity against Pseudomonas aeruginosa isolate 1050 by broth microdilution method
[22] = tested on: Pseudomonas aeruginosa; assay: Antimicrobial activity against Pseudomonas aeruginosa isolate 1060 by broth microdilution method
[23] = tested on: Pseudomonas aeruginosa; assay: Antimicrobial activity against Pseudomonas aeruginosa isolate 1095 by broth microdilution method
[24] = tested on: Pseudomonas aeruginosa; assay: Antimicrobial activity against Pseudomonas aeruginosa isolate 22 by broth microdilution method
[25] = tested on: Pseudomonas aeruginosa; assay: Antimicrobial activity against Pseudomonas aeruginosa isolate 878 by broth microdilution method
[26] = tested on: Pseudomonas aeruginosa; assay: Antimicrobial activity against Pseudomonas aeruginosa isolate 896 by broth microdilution method
[27] = tested on: Pseudomonas aeruginosa; assay: Antimicrobial activity against Pseudomonas aeruginosa isolate 988 by broth microdilution method
[28] = tested on: Pseudomonas aeruginosa; assay: Antimicrobial activity against Pseudomonas aeruginosa isolate 1006 by broth microdilution method
[29] = tested on: Pseudomonas aeruginosa; assay: Antimicrobial activity against Pseudomonas aeruginosa isolate 856 by broth microdilution method
[30] = tested on: Pseudomonas aeruginosa; assay: Antimicrobial activity against Pseudomonas aeruginosa isolate 913 by broth microdilution method
[31] = tested on: Pseudomonas aeruginosa; assay: Antimicrobial activity against Pseudomonas aeruginosa isolate 927 by broth microdilution method
[32] = tested on: Pseudomonas aeruginosa; assay: Antimicrobial activity against Pseudomonas aeruginosa isolate 968 by broth microdilution method
[33] = tested on: Pseudomonas aeruginosa; assay: Antimicrobial activity against Pseudomonas aeruginosa isolate 971 by broth microdilution method
[34] = tested on: Pseudomonas aeruginosa; assay: Antimicrobial activity against Pseudomonas aeruginosa isolate 821 by broth microdilution method
[35] = tested on: Pseudomonas aeruginosa; assay: Antimicrobial activity against Pseudomonas aeruginosa isolate 1080 by broth microdilution method
[36] = tested on: Pseudomonas aeruginosa; assay: Antimicrobial activity against Pseudomonas aeruginosa isolate 1093 by broth microdilution method

| Compound | MIC [19] [µg/mL] | MIC [20] [µg/mL] | MIC [21] [µg/mL] | MIC [22] [µg/mL] | MIC [24] [µg/mL] | MIC [25] [µg/mL] | MIC [26] [µg/mL] | MIC [27] [µg/mL] | MIC [28] [µg/mL] | MIC [29] [µg/mL] | MIC [30] [µg/mL] | MIC [31] [µg/mL] | MIC [32] [µg/mL] | MIC [33] [µg/mL] | MIC [34] [µg/mL] | MIC [35] [µg/mL] | MIC [36] [µg/mL] | also measured |
| --- | --- | --- | --- | --- | --- | --- | --- | --- | --- | --- | --- | --- | --- | --- | --- | --- | --- | --- |
| CCN1CCN(C(=O)N[C@@H](C(=O)N[C@@H]2C(=O)N3[C@@H]2SC(C)(C)[C@@H]3C(=O)O)c2ccccc2)C(=O)C1=O [PIPERACILLIN] |  |  |  |  |  |  |  |  |  |  |  |  |  |  |  |  |  | MIC [1]: 3 µg/mL; MIC [2]: 8 µg/mL; MIC [3]: 8 µg/mL; MIC [4]: 4 µg/mL; MIC [5]: 12 µg/mL; MIC [6]: 32 µg/mL; MIC [7]: ≥ 256 µg/mL; MIC [8]: ≥ 256 µg/mL; MIC [9]: 64 µg/mL; MIC [10]: 16 µg/mL; MIC [11]: ≥ 256 µg/mL; MIC [12]: ≥ 256 µg/mL; MIC [13]: 32 µg/mL; MIC [14]: 16 µg/mL; MIC [15]: ≥ 256 µg/mL; MIC [16]: 64 µg/mL; MIC [17]: 16 µg/mL; MIC [18]: 6 µg/mL |
| C[C@@H](O)[C@H]1C(=O)N2C(C(=O)O)=C(S[C@@H]3CN[C@H](C(=O)N(C)C)C3)[C@H](C)[C@H]12 [MEROPENEM] | 4 (≈ 10.4 µM) | 12 (≈ 31.3 µM) | ≥ 32 | 4 (≈ 10.4 µM) | 16 (≈ 41.7 µM) | ≥ 32 | 12 (≈ 31.3 µM) | 16 (≈ 41.7 µM) | ≥ 32 | ≥ 32 | ≥ 32 | ≥ 32 | ≥ 32 | ≥ 32 | ≥ 32 | ≥ 32 | ≥ 32 | MIC [23]: 4 µg/mL (≈ 10.4 µM) |
| O=C(O)c1cn(C2CC2)c2cc(N3CCNCC3)c(F)cc2c1=O [CIPROFLOXACIN] | 3 (≈ 9.05 µM) | 4 (≈ 12.1 µM) | > 32 |  |  | > 32 |  | 4 (≈ 12.1 µM) |  | > 32 |  | > 32 | > 32 | > 32 | > 32 | > 32 | > 32 |  |
| CO/N=C(\C(=O)N[C@@H]1C(=O)N2C(C(=O)[O-])=C(C[N+]3(C)CCCC3)CS[C@H]12)c1csc(N)n1 [CEFEPIME] | 12 (≈ 25 µM) | 16 (≈ 33.3 µM) | 4 (≈ 8.32 µM) | 2 (≈ 4.16 µM) | 16 (≈ 33.3 µM) | 24 (≈ 49.9 µM) | 12 (≈ 25 µM) | 12 (≈ 25 µM) | 4 (≈ 8.32 µM) | > 256 | 12 (≈ 25 µM) | 24 (≈ 49.9 µM) | 32 (≈ 66.6 µM) | 32 (≈ 66.6 µM) | > 256 | 64 (≈ 133 µM) | 64 (≈ 133 µM) |  |
